In ChEMBL document CHEMBL3879915, “Methods of inhibiting PRMT5” (2014):

Columns and labels:
[1] = target: Protein arginine N-methyltransferase 5 (Homo sapiens, UniProt O14744); assay: Inhibition of PRMT5 in human Z138 cells assessed as decrease in di-methyl arginine levels after 96 hrs by Western blot method; type: cell-based
[2] = Antiproliferative activity against human Z138 cells assessed as inhibition of cell viability after 5 days by Cell-Titer Glo assay; type: functional, cell-based; settings: Z-138, 120 h
PRMT5/MEP50 complex = PRMT5/MEP50 complex (Homo sapiens, UniProt O14744); assay: Inhibition of recombinant human fetal brain FLAG-tagged PRMT5/full length human testis 6His-tagged MEP50 expressed in baculovirus infected insect Sf9 cells using human histone H4 (1 to 15 residues) as substrate preincubated for 30 mins followed by [3H]-SAM addition
Chain of PRMT5/MEP50 complex (O14744 whole entry, the tested form may be a part): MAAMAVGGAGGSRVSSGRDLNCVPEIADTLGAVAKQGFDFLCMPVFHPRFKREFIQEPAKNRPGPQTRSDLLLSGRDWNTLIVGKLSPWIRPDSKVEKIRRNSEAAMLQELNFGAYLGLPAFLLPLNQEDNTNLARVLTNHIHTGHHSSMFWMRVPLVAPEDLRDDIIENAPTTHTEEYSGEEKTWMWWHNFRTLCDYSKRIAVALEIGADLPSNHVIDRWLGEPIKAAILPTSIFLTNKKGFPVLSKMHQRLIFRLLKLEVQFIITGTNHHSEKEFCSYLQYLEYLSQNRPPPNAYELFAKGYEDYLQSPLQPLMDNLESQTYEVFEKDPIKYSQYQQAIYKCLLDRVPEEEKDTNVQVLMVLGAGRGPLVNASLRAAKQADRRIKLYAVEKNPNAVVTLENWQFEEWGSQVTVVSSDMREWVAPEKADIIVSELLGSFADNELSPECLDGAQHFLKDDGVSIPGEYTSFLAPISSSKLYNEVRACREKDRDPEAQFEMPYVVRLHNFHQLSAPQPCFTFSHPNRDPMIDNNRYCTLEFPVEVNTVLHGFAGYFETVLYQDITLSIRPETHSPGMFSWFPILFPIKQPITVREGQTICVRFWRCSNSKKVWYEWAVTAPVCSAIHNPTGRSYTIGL
Chain of PRMT5/MEP50 complex (Q9BQA1 whole entry, further chain, the tested form may be a part): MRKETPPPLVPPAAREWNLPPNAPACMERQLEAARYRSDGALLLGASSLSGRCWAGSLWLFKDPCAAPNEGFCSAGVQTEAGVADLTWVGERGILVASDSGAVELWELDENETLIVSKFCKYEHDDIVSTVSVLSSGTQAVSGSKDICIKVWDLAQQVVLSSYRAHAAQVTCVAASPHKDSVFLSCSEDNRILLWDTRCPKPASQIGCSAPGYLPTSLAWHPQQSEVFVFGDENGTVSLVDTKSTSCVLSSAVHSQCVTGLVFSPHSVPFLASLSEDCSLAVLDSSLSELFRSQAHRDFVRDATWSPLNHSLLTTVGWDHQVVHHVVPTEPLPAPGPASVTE

Chain of Protein arginine N-methyltransferase 5 (O14744 whole entry): as the sequence (O14744 whole entry, the tested form may be a part) above

Structure (SMILES) | EC50 [1] [nM] | IC50 (PRMT5/MEP50 complex) [nM] | EC50 [2] [nM]
Cn1cnc2cc(OCC(=O)NCC(O)CN3CCc4ccccc4C3)ccc21 (centres undefined) | 101 to 1000 | 101 to 1000 | 10000 to 50000
CN1CCC(n2ncc3ccc(OCC(=O)NCC(O)CN4CCc5ccccc5C4)cc32)CC1 (centres undefined) | 101 to 1000 | < 100 | > 20000
O=C(COc1ccccc1OCCN1CCOCC1)NC[C@H](O)CN1CCc2ccccc2C1 | 101 to 1000 | < 100 | 10000 to 50000
CN(C)S(=O)(=O)c1ccccc1OCC(=O)NCC(O)CN1CCc2ccccc2C1 (centres undefined) | < 100 | < 100 | 101 to 1000
Cn1ncc2ccc(OCC(=O)NCC(O)CN3CCc4ccccc4C3)cc21 (centres undefined) | 101 to 1000 | < 100 | 1000 to 10000
CC(C)(Oc1cccc2cccnc12)C(=O)NCC(O)CN1CCc2ccccc2C1 (centres undefined) | 101 to 1000 | < 100 | 1000 to 10000
O=C(COc1cccc2ccc(N3CCOCC3)nc12)NCC(O)CN1CCc2ccccc2C1 (centres undefined) | 101 to 1000 | < 100 | 10000 to 50000
O=C(COc1ccc2c(cnn2C2CCNC2)c1)NCC(O)CN1CCc2ccccc2C1 (centres undefined) | 101 to 1000 | < 100 | 10000 to 50000
O=C(COc1c(CN2CCOCC2)ccc2cccnc12)NC[C@H](O)CN1CCc2ccccc2C1 | 101 to 1000 | < 100 | 10000 to 50000
C[C@H](Oc1cccc2cccnc12)C(=O)NC[C@H](O)CN1CCc2ccccc2C1 | 101 to 1000 | < 100 | 1000 to 10000
CS(=O)(=O)N1CCN(c2ccccc2OCC(=O)NCC(O)CN2CCc3ccccc3C2)CC1 (centres undefined) | 101 to 1000 | 101 to 1000 | > 20000
CC(=O)N1CCN(c2ccccc2OCC(=O)NCC(O)CN2CCc3ccccc3C2)CC1 (centres undefined) | 101 to 1000 | < 100 | 10000 to 50000
CN(C)CCOc1ccccc1OCC(=O)NC[C@H](O)CN1CCc2ccccc2C1 | 101 to 1000 | < 100 | 10000 to 50000
C[C@@H](Oc1cccc2cccnc12)C(=O)NC[C@H](O)CN1CCc2ccccc2C1 | < 100 | < 100 | 101 to 1000
O=C(COc1ccccc1S(=O)(=O)N1CCC(O)C1)NCC(O)CN1CCc2ccccc2C1 (centres undefined) | < 100 | < 100 | 101 to 1000
O=C(COc1cccc2cccnc12)NC[C@@H](O)CN1CCc2ccccc2C1 | < 100 | < 100 | 101 to 1000
O=C(COc1cccc2cccnc12)NC[C@H](O)CN1CCc2ccccc2C1 | 101 to 1000 | 101 to 1000 | 10000 to 50000
O=C(COc1cccc(CN2CCOCC2)c1)NCC(O)CN1CCc2ccccc2C1 (centres undefined) | < 100 | < 100 | 1000 to 10000
CN(C)c1ccc2cccc(OCC(=O)NC[C@H](O)CN3CCc4ccccc4C3)c2n1 | 1000 to 10000 | 101 to 1000 | > 20000
CS(=O)(=O)Nc1ccc(OCC(=O)NCC(O)CN2CCc3ccccc3C2)cc1 (centres undefined) | 101 to 1000 | 101 to 1000 | > 20000
CN(C)c1ccc(OCC(=O)NCC(O)CN2CCc3ccccc3C2)cc1 (centres undefined) | 101 to 1000 | 101 to 1000 | 10000 to 50000
CN1CCC(n2ncc3cc(OCC(=O)NCC(O)CN4CCc5ccccc5C4)ccc32)C1 (centres undefined) | 101 to 1000 | < 100 | 10000 to 50000
C[C@@H](Oc1cccc2cccnc12)C(=O)NC[C@@H](O)CN1CCc2ccccc2C1 | 101 to 1000 | < 100 | 1000 to 10000
CC(Oc1cccc2cccnc12)C(=O)NCC(O)CN1CCc2ccccc2C1 (centres undefined) | < 100 | < 100 | 101 to 1000
CN1CCN(S(=O)(=O)c2ccccc2OCC(=O)NCC(O)CN2CCc3ccccc3C2)CC1 (centres undefined) | 101 to 1000 | < 100 | 10000 to 50000
O=C(COc1ccc2cnn(C3CCNCC3)c2c1)NCC(O)CN1CCc2ccccc2C1 (centres undefined) | 101 to 1000 | < 100 | > 20000
CN(C)c1ccc2cccc(OCC(=O)NC[C@@H](O)CN3CCc4ccccc4C3)c2n1 | 101 to 1000 | < 100 | 1000 to 10000

Continued, in another order:

EC50 [1] [nM] | IC50 (PRMT5/MEP50 complex) [nM] | Structure (SMILES) | EC50 [2] [nM]
< 100 | < 100 | Cn1ncc2c(OCC(=O)NCC(O)CN3CCc4ccccc4C3)cccc21 (centres undefined) | 1000 to 10000
101 to 1000 | < 100 | CS(=O)(=O)c1cccc(OCC(=O)NCC(O)CN2CCc3ccccc3C2)c1 (centres undefined) | 1000 to 10000
101 to 1000 | 101 to 1000 | O=C(COc1cccc(C(=O)N2CCOCC2)c1)NCC(O)CN1CCc2ccccc2C1 (centres undefined) | 10000 to 50000
< 100 | < 100 | CC(=O)N1CCc2c(cccc2OCC(=O)NCC(O)CN2CCc3ccccc3C2)C1 (centres undefined) | 1000 to 10000
101 to 1000 | < 100 | O=C(COc1cccc2ccccc12)NCC(O)CN1CCc2ccccc2C1 (centres undefined) | 1000 to 10000
< 100 | < 100 | O=C(COc1cccc2c1OCCO2)NCC(O)CN1CCc2ccccc2C1 (centres undefined) | 1000 to 10000
< 100 | < 100 | O=C(COc1ccccc1-c1cc[nH]n1)NC[C@@H](O)CN1CCc2ccccc2C1 | 1000 to 10000
< 100 | < 100 | CS(=O)(=O)N1CCc2c(cccc2OCC(=O)NCC(O)CN2CCc3ccccc3C2)C1 (centres undefined) | 1000 to 10000
101 to 1000 | < 100 | Cc1cccc(OCC(=O)NCC(O)CN2CCc3ccccc3C2)c1 (centres undefined) | 1000 to 10000
101 to 1000 | < 100 | O=C(COc1ccccc1C1CCCCC1)NCC(O)CN1CCc2ccccc2C1 (centres undefined) | 1000 to 10000
< 100 | < 100 | CN1CCOc2cccc(OCC(=O)NCC(O)CN3CCc4ccccc4C3)c21 (centres undefined) | 101 to 1000
101 to 1000 | 101 to 1000 | O=C(COc1ccccc1)NC[C@H](O)CN1CCc2ccccc2C1 | 10000 to 50000
< 100 | < 100 | CN(C)c1ccccc1OCC(=O)NCC(O)CN1CCc2ccccc2C1 (centres undefined) | 1000 to 10000
101 to 1000 | < 100 | CN1C(=O)COc2cccc(OCC(=O)NCC(O)CN3CCc4ccccc4C3)c21 (centres undefined) | 10000 to 50000
101 to 1000 | < 100 | CN1CCc2c(cccc2OCC(=O)NCC(O)CN2CCc3ccccc3C2)C1 (centres undefined) | 1000 to 10000
< 100 | < 100 | CS(=O)(=O)c1ccccc1OCC(=O)NCC(O)CN1CCc2ccccc2C1 (centres undefined) | 1000 to 10000
101 to 1000 | < 100 | O=C(COc1ccccc1-c1cc[nH]n1)NC[C@H](O)CN1CCc2ccccc2C1 | > 20000
101 to 1000 | < 100 | CS(=O)(=O)Nc1cccc(OCC(=O)NCC(O)CN2CCc3ccccc3C2)c1 (centres undefined) | 1000 to 10000
101 to 1000 | 101 to 1000 | CC(=O)Nc1ccccc1OCC(=O)NCC(O)CN1CCc2ccccc2C1 (centres undefined) | > 20000
< 100 | < 100 | O=C(COc1ccccc1S(=O)(=O)N1CCNCC1)NCC(O)CN1CCc2ccccc2C1 (centres undefined) | 1000 to 10000
101 to 1000 | < 100 | O=C(COc1cccc2c1CCNC2)NCC(O)CN1CCc2ccccc2C1 (centres undefined) | 1000 to 10000

EC50 [1] [nM] | IC50 (PRMT5/MEP50 complex) [nM] | Structure (SMILES) | EC50 [2] [nM]
101 to 1000 | < 100 | O=C(COc1cccc2c1CCCC2)NCC(O)CN1CCc2ccccc2C1 (centres undefined) | 1000 to 10000
< 100 | < 100 | COc1ccc2cccc(OCC(=O)NC[C@@H](O)CN3CCc4ccccc4C3)c2n1 | 1000 to 10000
< 100 | < 100 | O=C(COc1ccccc1N1CCOCC1)NC[C@H](O)CN1CCc2ccccc2C1 | 1000 to 10000
101 to 1000 | < 100 | O=C(COc1ccccc1C1CCNCC1)NCC(O)CN1CCc2ccccc2C1 (centres undefined) | > 20000
101 to 1000 | < 100 | NS(=O)(=O)c1ccccc1OCC(=O)NCC(O)CN1CCc2ccccc2C1 (centres undefined) | 1000 to 10000
101 to 1000 | 101 to 1000 | CN(C)C(=O)c1ccccc1OCC(=O)NCC(O)CN1CCc2ccccc2C1 (centres undefined) | 10000 to 50000
< 100 | < 100 | O=C(COc1ccccc1S(=O)(=O)N1CCCC1)NCC(O)CN1CCc2ccccc2C1 (centres undefined) | 101 to 1000
101 to 1000 | < 100 | O=C(COc1ccccc1N1CCOCC1)NCC(O)CN1CCc2ccccc2C1 (centres undefined) | 1000 to 10000
101 to 1000 | 101 to 1000 | NC(=O)c1ccccc1OCC(=O)NCC(O)CN1CCc2ccccc2C1 (centres undefined) | > 20000
101 to 1000 | 1000 to 10000 | CC(=O)Nc1cccc(OCC(=O)NCC(O)CN2CCc3ccccc3C2)c1 (centres undefined) | 10000 to 50000
101 to 1000 | < 100 | CN1CCN(c2ccccc2OCC(=O)NC[C@H](O)CN2CCc3ccccc3C2)CC1 | 1000 to 10000
101 to 1000 | < 100 | CS(=O)(=O)Nc1ccccc1OCC(=O)NCC(O)CN1CCc2ccccc2C1 (centres undefined) | 1000 to 10000
< 100 | < 100 | O=C(COc1cccc(NC2CCOCC2)c1)NCC(O)CN1CCc2ccccc2C1 (centres undefined) | 1000 to 10000
< 100 | < 100 | O=C(COc1ccccc1-c1cc[nH]n1)NCC(O)CN1CCc2ccccc2C1 (centres undefined) | 1000 to 10000
101 to 1000 | 101 to 1000 | COc1ccc2cccc(OCC(=O)NC[C@H](O)CN3CCc4ccccc4C3)c2n1 | 1000 to 10000
101 to 1000 | 101 to 1000 | CNC(=O)c1ccccc1OCC(=O)NCC(O)CN1CCc2ccccc2C1 (centres undefined) | > 20000
101 to 1000 | 101 to 1000 | NC(=O)c1cccc(OCC(=O)NCC(O)CN2CCc3ccccc3C2)c1 (centres undefined) | 10000 to 50000
101 to 1000 | < 100 | O=C(COc1ccccc1N1CCNCC1)NCC(O)CN1CCc2ccccc2C1 (centres undefined) | 1000 to 10000
101 to 1000 | < 100 | CN(C)c1cccc(OCC(=O)NCC(O)CN2CCc3ccccc3C2)c1 (centres undefined) | 1000 to 10000
< 100 | < 100 | O=C(COc1cccc2nccnc12)NCC(O)CN1CCc2ccccc2C1 (centres undefined) | 1000 to 10000
